Key:
[1] = tested on: SETVI (Foxtail, Green); experiment: Postemergence herbicidal evaluation; format: in vivo, Setaria viridis; settings: postemergence
Summary of the method: (§1)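 ~2-wk seedlings; postemergence spray, 40 psi; vehicle 1:1 acetone:water + 0.5% Tween 20; rate ≈0.0156–0.500 kg/ha; greenhouse hold; scored 4–5 wk after treatment, 0–9 scale vs control; repeat tests averaged.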

[2] = tested on: ECHCG (Barnyardgrass); experiment: Postemergence herbicidal evaluation; format: in vivo, Echinochloa crus-galli; settings: postemergence
Summary of the method: as §1

[3] = tested on: IPOHE (Morningglory, Ivyleaf); experiment: Preemergence herbicidal evaluation; format: in vivo, Ipomoea hederacea; settings: preemergence, rated 4-5 weeks after treatment, 0-9 scale
Summary of the method: (§2)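 Visual 0-9 rating vs control (stand, vigor, malformation, size, chlorosis, overall appearance), scored 4-5 wk after spraying. Seeded soil cups were treated preemergence with compound in aqueous acetone, ~0.0156-0.500 kg/ha equivalent.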

[4] = tested on: ABUTH (Velvetleaf); experiment: Postemergence herbicidal evaluation; format: in vivo, Abutilon theophrasti; settings: postemergence
Summary of the method: as §1

[5] = tested on: MOOVA (Monochoria); experiment: Preemergence weed control under flooded paddy conditions; format: in vivo, Monochoria vaginalis; settings: rated 3-4 weeks after treatment
Summary of the method: (§3)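 First, seeds or propagules go into the top 0.5 cm of silt loam; next, water is held 1.5 to 3 cm over the soil; then compound (50/50 acetone/water) is pipetted into it at about 0.0313 to 0.500 kg/ha; finally plants are rated visually 0-9 after three to four weeks.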

[6] = tested on: ECHORC (Watergrass (Calif.)); experiment: as above; format: in vivo, Echinochloa oryzoides; settings: rated 3-4 weeks after treatment
Summary of the method: as §3

[7] = tested on: SAGPY (Arrowhead (Pygmaea)); experiment: Postemergence weed control under flooded paddy conditions; format: in vivo, Sagittaria pygmaea; settings: postemergence weeds, rated 3 to 4 weeks after treatment
Summary of the method: (§4)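 Herbicidal effect is judged by eye on a 0–9 scale versus control, 3–4 weeks after dosing. Dosing is into flood water kept 1.5–3 cm over the soil, at about 0.0313–0.500 kg/ha in aqueous/acetone 50/50 v/v, on 3–5 cm weeds and 1.5–2.5-leaf rice seedlings.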

[8] = tested on: GALAP (Galium); experiment: Postemergence herbicidal evaluation; format: in vivo, Galium aparine; settings: postemergence
Summary of the method: as §1

[9] = tested on: ZEAMX (Corn, Field); experiment: Preemergence herbicidal evaluation; format: in vivo, Zea mays; settings: preemergence, rated 4-5 weeks after treatment, 0-9 scale
Summary of the method: as §2

[10] = tested on: CYPSE (Flatsedge); experiment: Postemergence weed control under flooded paddy conditions; format: in vivo, Cyperus serotinus; settings: postemergence weeds, rated 3 to 4 weeks after treatment
Summary of the method: as §4

[11] = tested on: ORYSAT (Rice, Tebonnet); experiment: Postemergence herbicidal evaluation; format: in vivo, Oryza sativa, (L.) Tebonnet; settings: postemergence
Summary of the method: as §1

[12] = tested on: CYPIR (Rice Flatsedge); experiment: Postemergence weed control under flooded paddy conditions; format: in vivo, Cyperus iria; settings: postemergence weeds, rated 3 to 4 weeks after treatment
Summary of the method: as §4

[13] = tested on: TRZAWR (Wheat, Winter, cv Riband); experiment: Preemergence herbicidal evaluation; format: in vivo, Triticum aestivum; settings: preemergence, rated 4-5 weeks after treatment, 0-9 scale
Summary of the method: as §2

[14] = tested on: CYPIR (Rice Flatsedge); experiment: Preemergence weed control under flooded paddy conditions; format: in vivo, Cyperus iria; settings: rated 3-4 weeks after treatment
Summary of the method: as §3

Compound: C=CCN1C(=O)C(CC(=O)NOC)SC1=Nc1cc(-n2c(=O)cc(C(F)(F)F)n(C)c2=O)c(F)cc1Cl (centres unmarked) [Compound 85]
- SETVI herbicidal rating ([1]; rate 0.0156 kg/ha): 0.0
- SETVI herbicidal rating ([1]; rate 0.0313 kg/ha): 0.0
- SETVI herbicidal rating ([1]; rate 0.0625 kg/ha): 9.0
- SETVI herbicidal rating ([1]; rate 0.1250 kg/ha): 9.0
- ECHCG herbicidal rating ([2]; rate 0.0156 kg/ha): 0.0
- ECHCG herbicidal rating ([2]; rate 0.0313 kg/ha): 0.0
- ECHCG herbicidal rating ([2]; rate 0.0625 kg/ha): 0.0
- ECHCG herbicidal rating ([2]; rate 0.1250 kg/ha): 9.0
- IPOHE rating ([3]; 0.0156 kg/ha): 0.0
- IPOHE rating ([3]; 0.0313 kg/ha): 0.0
- IPOHE rating ([3]; 0.0625 kg/ha): 2.0
- IPOHE rating ([3]; 0.1250 kg/ha): 5.0
- IPOHE rating ([3]; 0.2500 kg/ha): 7.0
- IPOHE rating ([3]; 0.5000 kg/ha): 9.0
- ABUTH herbicidal rating ([4]; rate 0.0156 kg/ha): 9.0
- ABUTH herbicidal rating ([4]; rate 0.0313 kg/ha): 9.0
- ABUTH herbicidal rating ([4]; rate 0.0625 kg/ha): 9.0
- ABUTH herbicidal rating ([4]; rate 0.1250 kg/ha): 9.0
- MOOVA herbicidal effect rating ([5]; 0.0313 kg/ha): 9.0
- MOOVA herbicidal effect rating ([5]; 0.0625 kg/ha): 9.0
- MOOVA herbicidal effect rating ([5]; 0.1250 kg/ha): 9.0
- MOOVA herbicidal effect rating ([5]; 0.2500 kg/ha): 9.0
- ECHORC herbicidal effect rating ([6]; 0.0313 kg/ha): 4.0
- ECHORC herbicidal effect rating ([6]; 0.0625 kg/ha): 5.0
- ECHORC herbicidal effect rating ([6]; 0.1250 kg/ha): 7.0
- ECHORC herbicidal effect rating ([6]; 0.2500 kg/ha): 9.0
- Herbicidal rating SAGPY ([7]; Rate 0.0313 kg/ha): 3.0
- Herbicidal rating SAGPY ([7]; Rate 0.0625 kg/ha): 3.0
- Herbicidal rating SAGPY ([7]; Rate 0.1250 kg/ha): 9.0
- Herbicidal rating SAGPY ([7]; Rate 0.2500 kg/ha): 9.0
- GALAP herbicidal rating ([8]; rate 0.0156 kg/ha): 0.0
- GALAP herbicidal rating ([8]; rate 0.0313 kg/ha): 1.0
- GALAP herbicidal rating ([8]; rate 0.0625 kg/ha): 3.0
- GALAP herbicidal rating ([8]; rate 0.1250 kg/ha): 5.0
- ZEAMX rating ([9]; 0.0156 kg/ha): 0.0
- ZEAMX rating ([9]; 0.0313 kg/ha): 0.0
- ZEAMX rating ([9]; 0.0625 kg/ha): 0.0
- ZEAMX rating ([9]; 0.1250 kg/ha): 2.0
- ZEAMX rating ([9]; 0.2500 kg/ha): 5.0
- ZEAMX rating ([9]; 0.5000 kg/ha): 9.0
- Herbicidal rating CYPSE ([10]; Rate 0.0313 kg/ha): 0.0
- Herbicidal rating CYPSE ([10]; Rate 0.0625 kg/ha): 2.0
- Herbicidal rating CYPSE ([10]; Rate 0.1250 kg/ha): 2.0
- Herbicidal rating CYPSE ([10]; Rate 0.2500 kg/ha): 9.0
- ORYSAT herbicidal rating ([11]; rate 0.0156 kg/ha): 1.0
- ORYSAT herbicidal rating ([11]; rate 0.0313 kg/ha): 1.0
- ORYSAT herbicidal rating ([11]; rate 0.0625 kg/ha): 1.5
- ORYSAT herbicidal rating ([11]; rate 0.1250 kg/ha): 2.5
- Herbicidal rating CYPIR ([12]; Rate 0.0313 kg/ha): 3.0
- Herbicidal rating CYPIR ([12]; Rate 0.0625 kg/ha): 7.0
- Herbicidal rating CYPIR ([12]; Rate 0.1250 kg/ha): 9.0
- Herbicidal rating CYPIR ([12]; Rate 0.2500 kg/ha): 9.0
- TRZAWR rating ([13]; 0.0156 kg/ha): 0.0
- TRZAWR rating ([13]; 0.0313 kg/ha): 0.0
- TRZAWR rating ([13]; 0.0625 kg/ha): 0.0
- TRZAWR rating ([13]; 0.1250 kg/ha): 3.0
- TRZAWR rating ([13]; 0.2500 kg/ha): 5.0
- TRZAWR rating ([13]; 0.5000 kg/ha): 8.0
- CYPIR herbicidal effect rating ([14]; 0.0313 kg/ha): 3.0
- CYPIR herbicidal effect rating ([14]; 0.0625 kg/ha): 7.0
- CYPIR herbicidal effect rating ([14]; 0.1250 kg/ha): 9.0
- CYPIR herbicidal effect rating ([14]; 0.2500 kg/ha): 9.0

Compound: CN1C(=O)C(CC(N)=O)SC1=Nc1cc(-n2c(=O)cc(C(F)(F)F)n(C)c2=O)c(F)cc1Cl (centres unmarked) [Compound 92, 2-{{2-Chloro-5-[3,6-dihydro-3-methyl-2,6-dioxo-4-(trifluoromethyl)-1(2H)-pyrimidinyl]-4-fluorophenyl}imino}-3-methyl-4-oxo-5-thiazolidineacetamide]
- SETVI herbicidal rating ([1]; rate 0.0158 kg/ha): 0.0
- SETVI herbicidal rating ([1]; rate 0.0315 kg/ha): 9.0
- SETVI herbicidal rating ([1]; rate 0.0630 kg/ha): 9.0
- ECHCG herbicidal rating ([2]; rate 0.0158 kg/ha): 0.0
- ECHCG herbicidal rating ([2]; rate 0.0315 kg/ha): 1.0
- ECHCG herbicidal rating ([2]; rate 0.0630 kg/ha): 1.0
- IPOHE rating ([3]; 0.0156 kg/ha): 0.0
- IPOHE rating ([3]; 0.0313 kg/ha): 0.0
- IPOHE rating ([3]; 0.0625 kg/ha): 0.0
- IPOHE rating ([3]; 0.1250 kg/ha): 9.0
- IPOHE rating ([3]; 0.2500 kg/ha): 9.0
- ABUTH herbicidal rating ([4]; rate 0.0158 kg/ha): 9.0
- ABUTH herbicidal rating ([4]; rate 0.0315 kg/ha): 9.0
- ABUTH herbicidal rating ([4]; rate 0.0630 kg/ha): 9.0
- MOOVA herbicidal effect rating ([5]; 0.0313 kg/ha): 9.0
- MOOVA herbicidal effect rating ([5]; 0.0625 kg/ha): 9.0
- MOOVA herbicidal effect rating ([5]; 0.1250 kg/ha): 9.0
- MOOVA herbicidal effect rating ([5]; 0.2500 kg/ha): 9.0
- ECHORC herbicidal effect rating ([6]; 0.0313 kg/ha): 0.0
- ECHORC herbicidal effect rating ([6]; 0.0625 kg/ha): 0.0
- ECHORC herbicidal effect rating ([6]; 0.1250 kg/ha): 2.0
- ECHORC herbicidal effect rating ([6]; 0.2500 kg/ha): 3.0
- Herbicidal rating SAGPY ([7]; Rate 0.0313 kg/ha): 0.0
- Herbicidal rating SAGPY ([7]; Rate 0.0625 kg/ha): 0.0
- Herbicidal rating SAGPY ([7]; Rate 0.1250 kg/ha): 4.0
- Herbicidal rating SAGPY ([7]; Rate 0.2500 kg/ha): 9.0
- GALAP herbicidal rating ([8]; rate 0.0158 kg/ha): 0.0
- GALAP herbicidal rating ([8]; rate 0.0315 kg/ha): 3.0
- GALAP herbicidal rating ([8]; rate 0.0630 kg/ha): 4.0
- ZEAMX rating ([9]; 0.0156 kg/ha): 0.0
- ZEAMX rating ([9]; 0.0313 kg/ha): 0.0
- ZEAMX rating ([9]; 0.0625 kg/ha): 0.0
- ZEAMX rating ([9]; 0.1250 kg/ha): 0.0
- ZEAMX rating ([9]; 0.2500 kg/ha): 6.0
- Herbicidal rating CYPSE ([10]; Rate 0.0313 kg/ha): 9.0
- Herbicidal rating CYPSE ([10]; Rate 0.0625 kg/ha): 9.0
- Herbicidal rating CYPSE ([10]; Rate 0.1250 kg/ha): 9.0
- Herbicidal rating CYPSE ([10]; Rate 0.2500 kg/ha): 9.0
- ORYSAT herbicidal rating ([11]; rate 0.0158 kg/ha): 1.5
- ORYSAT herbicidal rating ([11]; rate 0.0315 kg/ha): 2.0
- ORYSAT herbicidal rating ([11]; rate 0.0630 kg/ha): 3.5
- Herbicidal rating CYPIR ([12]; Rate 0.0313 kg/ha): 3.0
- Herbicidal rating CYPIR ([12]; Rate 0.0625 kg/ha): 3.0
- Herbicidal rating CYPIR ([12]; Rate 0.1250 kg/ha): 5.0
- Herbicidal rating CYPIR ([12]; Rate 0.2500 kg/ha): 7.0
- TRZAWR rating ([13]; 0.0156 kg/ha): 0.0
- TRZAWR rating ([13]; 0.0313 kg/ha): 0.0
- TRZAWR rating ([13]; 0.0625 kg/ha): 0.0
- TRZAWR rating ([13]; 0.1250 kg/ha): 0.0
- TRZAWR rating ([13]; 0.2500 kg/ha): 2.0
- CYPIR herbicidal effect rating ([14]; 0.0313 kg/ha): 3.0
- CYPIR herbicidal effect rating ([14]; 0.0625 kg/ha): 3.0
- CYPIR herbicidal effect rating ([14]; 0.1250 kg/ha): 5.0
- CYPIR herbicidal effect rating ([14]; 0.2500 kg/ha): 7.0

Reference: patent US20020137929A1, “1 - (3-heterocyclylphenyl) isothiourea, -isourea, -guanidine and -amidine herbicidal agents” (Intellectual Property Department, BASF Aktiengesellschaft, priority 1998, published 2002)
